# Source: patent US20260285863A1, “COMPOUNDS CAPABLE OF MODULATING GPR65” (Pathios Therapeutics Limited, priority 2023, published 2026)
# Target: T1, human recombinant GPR65 (Homo sapiens, UniProt Q8IYL9)
# T1 construct: host or cells: 1321N1 human astrocytoma cells (1321N1-hrGPR65)
# Test: Human GPR65 cAMP HTRF antagonist assay
# Assay type: cell-based
# Conditions: 1321N1-hrGPR65 cells, assay pH 7.2, cAMP HTRF; read-out: hGPR65 IC50
# From the text: The “Human GPR65 cyclic adenosine monophosphate (cAMP) Homogeneous Time Resolved Fluorescence (HTRF) antagonist assay”, or simply “cAMP assay”, as described in the accompanying examples, can be used to measure the potency of GPR65 modulators, which is expressed as the concentration of compound required to reduce the increase in cAMP concentration upon GPR65 activation by 50% (i.e. an IC50).
# Human GPR65 Cyclic Adenosine Monophosphate (cAMP) Homogeneous Time Resolved Fluorescence (HTRF) Antagonist Assay Procedure
# IC50data was obtained by the following procedure:
# 1321N1 human astrocytoma cells stably expressing human recombinant GPR65 (1321N1-hrGPR65 cells, EuroscreenFast) were cultured according to the vendor's instructions.
# Compounds were tested for their ability to antagonise GPR65, through measuring the concentration of cytoplasmic cAMP following treatment of the cells at a pH of 7.2 to activate GPR65 signalling and addition of the compound to be tested. The extent to which the expected rise in cAMP concentration upon GPR65 activation was suppressed by the added compound is indicative of its potency. The assay was carried out according to EuroscreenFast assay Methodology as follows.
# On the day of the assay, test compounds were added to 384-well, low volume, white microtiter plates by acoustic dispensing. KRH buffer (5 mM KCl, 1.25 mM MgSO4, 124 mM NaCl, 25 mM HEPES, 13.3 mM Glucose, 1.25 mM KH2PO4 and 1.45 mM CaCl2) was adjusted to pH 6.5, pH 7.6 and pH 8.4 by adding NaOH. 1321N1-hGPR65 cells were rapidly thawed and diluted in KRH, pH 7.6 prior to centrifugation at 300×g for 5 min and resuspension in assay buffer (KRH, pH 7.6, supplemented with 1 mM 3-isobutyl-1-methylxanthine (IBMX) and 200 μM ethylenediaminetetraacetic acid (EDTA)). Cells were added to assay plates at a density of 2,000 cells per well in a volume of […]. Assay plates were briefly centrifuged at 100×g and then incubated at room temperature for 30 min. Cells were stimulated by the addition of 5 μL KRH, pH 6.5, to achieve an assay pH of 7.2, while control wells received […] KRH, pH 8.4 to achieve an assay pH of 7.9. Assay plates were briefly centrifuged at 100×g and then incubated at room temperature for 30 min.
# Accumulation of cAMP was detected by cAMP HTRF kit (Cisbio). d2-labeled cAMP and cryptate-labeled anti-cAMP antibody in Lysis and Detection Buffer (Cisbio) were added to assay plates, and the plates were incubated at room temperature for 1 h. HTRF measurements were performed using a Pherastar FSX instrument. Acceptor and donor emission signals were measured at 665 nm and 620 nm, respectively, and HTRF ratios were calculated as signal665 nm/signal620 nm×104. Data were normalised to high and low control values and fitted with 4-parameter logistic regression to determine hGPR65 IC50 values for the test compounds, which are shown in Table 1.
# T1 sequence (Q8IYL9 whole entry): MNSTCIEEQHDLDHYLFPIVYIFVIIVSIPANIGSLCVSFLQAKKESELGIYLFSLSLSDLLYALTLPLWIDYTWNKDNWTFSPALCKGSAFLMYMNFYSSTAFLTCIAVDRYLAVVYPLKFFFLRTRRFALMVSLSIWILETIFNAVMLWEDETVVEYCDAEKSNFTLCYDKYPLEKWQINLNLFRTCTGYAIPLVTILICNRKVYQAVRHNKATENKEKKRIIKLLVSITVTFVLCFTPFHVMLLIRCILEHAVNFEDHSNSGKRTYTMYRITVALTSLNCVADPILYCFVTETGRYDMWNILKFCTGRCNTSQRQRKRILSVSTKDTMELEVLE
row,SMILES,IC50
1,"O=C(Nc1cc(Cl)c(COc2cccc(OC3CCCC3)n2)cc1F)N1[C@H]2CC[C@@H]1c1n[nH]c(=O)cc1C2 [Compound 59, (6S,9R)-N-(5-chloro-4-(((6-(cyclopentyloxy)pyridin-2-yl)oxy)methyl)-2-fluorophenyl)-3-oxo-3,5,6,7,8,9-hexahydro-2H-6,9-epiminocyclohepta[c]pyridazine-10-carboxamide]",< 500 nM
2,"O=C(Nc1cc(Cl)c(-c2ccc(OCC3CC3(F)F)nc2)cc1F)N1[C@H]2CC[C@@H]1c1ccnc(F)c1C2 (stereo partly drawn) [Compound 14, (5R,8S)-N-(5-chloro-4-(6-((2,2-difluorocyclopropyl)methoxy)pyridin-3-yl)-2-fluorophenyl)-1-fluoro-6,7,8,9-tetrahydro-5H-5,8-epiminocyclohepta[c]pyridine-10-carboxamide]",< 500 nM
3,"O=C(Nc1cc(Cl)c(-c2ccc(OC[C@@H]3CC3(F)F)nc2)cc1F)N1[C@H]2CC[C@@H]1c1c[nH]c(=O)cc1C2 [Compound 85, (6S,9R)-N-(5-Chloro-4-(6-(((S)-2,2-difluorocyclopropyl)methoxy)pyridin-3-yl)-2-fluorophenyl)-3-oxo-3,5,6,7,8,9-hexahydro-2H-6,9-epiminocyclohepta[c]pyridine-10-carboxamide]",< 500 nM
4,"O=C(Nc1ccc(Cl)cc1F)N1[C@H]2CC[C@@H]1c1ccnc(F)c1C2 [Compound 46, (5R,8S)-N-(4-chloro-2-fluorophenyl)-1-fluoro-6,7,8,9-tetrahydro-5H-5,8-epiminocyclohepta[c]pyridine-10-carboxamide]",< 500 nM
5,"O=C(Nc1cc(Cl)c(Cl)cn1)N1[C@H]2CC[C@@H]1c1ccncc1C2 [Compound 44, (5R,8S)-N-(4,5-dichloropyridin-2-yl)-6,7,8,9-tetrahydro-5H-5,8-epiminocyclohepta[c]pyridine-10-carboxamide]",< 500 nM
6,"COCCOCCO[C@H]1C[C@@H](Oc2ccc(-c3cc(F)c(NC(=O)N4[C@H]5CC[C@@H]4c4c[nH]c(=O)cc4C5)cc3Cl)cn2)C1 [Compound 15, (6S,9R)-N-(5-chloro-2-fluoro-4-(6-((1s,3S)-3-(2-(2-methoxyethoxy)ethoxy)cyclobutoxy)pyridin-3-yl)phenyl)-3-oxo-3,5,6,7,8,9-hexahydro-2H-6,9-epiminocyclohepta[c]pyridine-10-carboxamide]",< 500 nM
7,"O=C(Nc1cc(Cl)c(-c2ccc3nonc3c2)cn1)N1[C@H]2CC[C@@H]1C(F)(F)c1c2ccnc1F [Compound 73, (5S,8R)-N-(5-(Benzo[c][1,2,5]oxadiazol-5-yl)-4-chloropyridin-2-yl)-1,9,9-trifluoro-6,7,8,9-tetrahydro-5H-5,8-epiminocyclohepta[c]pyridine-10-carboxamide]",500 to 5000 nM
8,"CC(C)(C)OC(=O)N1CC(COc2ccc(-c3cc(F)c(NC(=O)N4[C@H]5CC[C@@H]4c4c[nH]c(=O)cc4C5)cc3Cl)cn2)C1 [Compound 29, tert-Butyl 3-(((5-(2-chloro-5-fluoro-4-((6S,9R)-3-oxo-3,5,6,7,8,9-hexahydro-2H-6,9-epiminocyclohepta[c]pyridine-10-carboxamido)phenyl)pyridin-2-yl)oxy)methyl)azetidine-1-carboxylate]",< 500 nM
9,"Cc1cc(NC(=O)N2[C@H]3CC[C@@H]2c2c[nH]c(=O)cc2C3)c(F)cc1-c1ccc(OCC(F)(F)F)nc1 [Compound 18, (6S,9R)-N-(2-fluoro-5-methyl-4-(6-(2,2,2-trifluoroethoxy)pyridin-3-yl)phenyl)-3-oxo-3,5,6,7,8,9-hexahydro-2H-6,9-epiminocyclohepta[c]pyridine-10-carboxamide]",< 500 nM
10,"O=C(Nc1cc(Cl)c(NCc2cccc(OCC(F)(F)F)n2)cc1F)N1[C@H]2CC[C@@H]1c1n[nH]c(=O)cc1C2 [Compound 64, (6S,9R)-N-(5-chloro-2-fluoro-4-(((6-(2,2,2-trifluoroethoxy)pyridin-2-yl)methyl)amino)phenyl)-3-oxo-3,5,6,7,8,9-hexahydro-2H-6,9-epiminocyclohepta[c]pyridazine-10-carboxamide]",< 500 nM
11,"O=C(Nc1cc(Cl)c(Cl)cn1)N1[C@@H]2CC[C@H]1[C@@H](F)c1c2ccnc1F [Compound 42, (5R,8S,9S)-N-(4,5-dichloropyridin-2-yl)-1,9-difluoro-6,7,8,9-tetrahydro-5H-5,8-epiminocyclohepta[c]pyridine-10-carboxamide]",< 500 nM
12,"O=C(Nc1cc(Cl)c(-c2ccc(OC[C@@H]3CCOC3)nc2)cc1F)N1[C@H]2CC[C@@H]1c1c[nH]c(=O)cc1C2 (single isomer, unassigned) [Compound 47]",< 500 nM
13,"O=C(Nc1cc(Cl)c(-c2ccc(OCC3CCOC3)nc2)cc1F)N1[C@H]2CC[C@@H]1c1c[nH]c(=O)cc1C2 (stereo partly drawn) [Compound 16, (6S,9R)-N-(5-chloro-2-fluoro-4-(6-((tetrahydrofuran-3-yl)methoxy)pyridin-3-yl)phenyl)-3-oxo-3,5,6,7,8,9-hexahydro-2H-6,9-epiminocyclohepta[c]pyridine-10-carboxamide]",< 500 nM
14,"O=C(Nc1cc(Cl)c(-c2ccc(OCC34COC(C3)C4)nc2)cc1F)N1[C@H]2CC[C@@H]1c1n[nH]c(=O)cc1C2 [Compound 1, (6S,9R)-N-(4-(6-((2-oxabicyclo[2.1.1]hexan-4-yl)methoxy)pyridin-3-yl)-5-chloro-2-fluorophenyl)-3-oxo-3,5,6,7,8,9-hexahydro-2H-6,9-epiminocyclohepta[c]pyridazine-10-carboxamide]",< 500 nM
15,"CN(CC(F)(F)F)c1ccc(-c2cc(F)c(NC(=O)N3[C@H]4CC[C@@H]3c3c[nH]c(=O)cc3C4)cc2Cl)cn1 [Compound 8, (6S,9R)-N-(5-chloro-2-fluoro-4-(6-(methyl(2,2,2-trifluoroethyl)amino)pyridin-3-yl)phenyl)-3-oxo-3,5,6,7,8,9-hexahydro-2H-6,9-epiminocyclohepta[c]pyridine-10-carboxamide]",< 500 nM
16,"O=C(Nc1cc(Cl)c(-c2ccc(OCC(F)(F)F)nc2)cc1F)N1[C@H]2CC[C@@H]1C(F)(F)c1c2ccnc1F [Compound 72, (5S,8R)-N-(5-Chloro-2-fluoro-4-(6-(2,2,2-trifluoroethoxy)pyridin-3-yl)phenyl)-1,9,9-trifluoro-6,7,8,9-tetrahydro-5H-5,8-epiminocyclohepta[c]pyridine-10-carboxamide]",< 500 nM
17,"O=C(Nc1cc(Cl)c(-c2ccc(OC[C@@H]3CCOC3)nc2)cc1F)N1[C@H]2CC[C@@H]1c1n[nH]c(=O)cc1C2 [Compound 79, (6S,9R)-N-(5-Chloro-2-fluoro-4-(6-(((R)-tetrahydrofuran-3-yl)methoxy)pyridin-3-yl)phenyl)-3-oxo-3,5,6,7,8,9-hexahydro-2H-6,9-epiminocyclohepta[c]pyridazine-10-carboxamide]",< 500 nM
18,"O=C(Nc1cc(Cl)c(-c2ccc(OC3CCN(CC(F)(F)F)C3)nc2)cc1F)N1[C@H]2CC[C@@H]1c1c[nH]c(=O)cc1C2 (stereo partly drawn) [Compound 27, (6S,9R)-N-(5-chloro-2-fluoro-4-(6-((1-(2,2,2-trifluoroethyl)pyrrolidin-3-yl)oxy)pyridin-3-yl)phenyl)-3-oxo-3,5,6,7,8,9-hexahydro-2H-6,9-epiminocyclohepta[c]pyridine-10-carboxamide]",< 500 nM
19,"O=C(Nc1cc(Cl)c(-c2ccc(Nc3cc(Cl)c(-c4ccc(OCC(F)(F)F)nc4)cc3F)nc2)cc1F)N1[C@H]2CC[C@@H]1c1n[nH]c(=O)cc1C2 [Compound 92, (6S,9R)-N-(5-Chloro-4-(6-((5-chloro-2-fluoro-4-(6-(2,2,2-trifluoroethoxy)pyridin-3-yl)phenyl)amino)pyridin-3-yl)-2-fluorophenyl)-3-oxo-3,5,6,7,8,9-hexahydro-2H-6,9-epiminocyclohepta[c]pyridazine-10-carboxamide]",< 500 nM
20,"O=C(Nc1cc(Cl)c(-c2ccc(OCC3CCC3)nc2)cc1F)N1[C@H]2CC[C@@H]1c1c[nH]c(=O)cc1C2 [Compound 28, (6S,9R)-N-(5-chloro-4-(6-(cyclobutylmethoxy)pyridin-3-yl)-2-fluorophenyl)-3-oxo-3,5,6,7,8,9-hexahydro-2H-6,9-epiminocyclohepta[c]pyridine-10-carboxamide]",< 500 nM
